Reference: US20250084084A1, “Crystalline form of (2R)-2-(5-fluoro-2-methoxypyridin-4-yl)-1-[(2S)-7-methyl-6-(pyrimidin-2-yl)-3,4-dihydro-1H-spiro[1,8-naphthyridine-2,3-pyrrolidin]-1-yl]propan-1-one” (Pfizer Inc., priority 2020, published 2025)

What follows are molecules tested against α-melanocyte-stimulating hormone receptor (hMC4R) (Homo sapiens (Human), UniProt P32245) (assay: In vitro binding affinity assay using hMC4R (radioligand competition binding, [125I]-(Nle4, D-Phe7)-α-MSH)). Conditions: geometric mean, read-out: Ki (nM) geometric.
α-melanocyte-stimulating hormone receptor (hMC4R), sequence (P32245 whole entry): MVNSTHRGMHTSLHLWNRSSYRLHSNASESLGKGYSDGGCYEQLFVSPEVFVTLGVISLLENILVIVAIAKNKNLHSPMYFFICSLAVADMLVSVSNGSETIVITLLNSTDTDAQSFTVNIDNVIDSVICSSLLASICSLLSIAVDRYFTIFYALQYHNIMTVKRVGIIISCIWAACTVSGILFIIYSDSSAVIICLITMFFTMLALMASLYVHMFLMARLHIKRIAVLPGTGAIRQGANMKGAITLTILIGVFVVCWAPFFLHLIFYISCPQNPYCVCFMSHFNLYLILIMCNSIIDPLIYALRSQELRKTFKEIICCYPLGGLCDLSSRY
Description: The binding affinity of test compounds at the α-melanocyte-stimulating hormone receptor (hMC4R) was assessed using a radioligand competition binding assay. Recombinant Chinese hamster ovaries (CHO) cells stably expressing hMC4R (PerkinElmer #ES-191-C) were used for competitive binding. hMC4R membranes were grown in Dulbecco's Modified Essential Medium and Ham's F-12 Medium (DMEM/F12), 10% heat inactivated fetal bovine serum (FBS), 0.4 mg/mL Geneticin and 2 mM L-glutamine. Cell membranes were bulked and frozen until the assay was performed.
Compounds were solubilized in 100% dimethyl sulfoxide (DMSO) to a concentration of 30 mM. A 10-point intermediate dilution series using half log dilutions was created in 100% DMSO with a top concentration of 0.03 mM. The serially diluted compounds were spotted as 1 μL/well, in 96-well Costar 3363 plates. The final compound range in the assay was 300 nM to 0.01 nM with a final DMSO concentration of 1%. Control wells, containing 1 μL of 2 mM ([…]) alpha-melanocyte stimulating hormone (α-MSH-Tocris #2584) was added to the non-specific binding wells and 1 μL 100% DMSO for the total binding control wells. […] The exact concentration of radioligand used for each experiment was determined by liquid scintillation counting and adjusted if necessary.
Frozen hMC4R cell membranes were thawed and Dounce homogenized. Homogenates were resuspended in assay buffer to a concentration of 2 μg per well. […] The plates were incubated for 2 hours at room temperature. Assay samples were then rapidly filtered through Unifilter-96 GF/B PEI coated filter plates using a filter plate harvester (PerkinElmer) and rinsed with ice-cold wash buffer [25 mM (4-(2-hydroxyethyl)-1-piperazineethanesulfonic acid (HEPES), 1 mM MgCl2, 2.5 mM CaCl2, and 500 mM NaCl]. Filter plates were dried overnight at room temperature. Plates were then bottom-sealed prior to the addition of 50 μL/well Ultima Gold XR scintillation fluid (PerkinElmer 6013111). Plates were then top-sealed, incubated for 60 minutes at room temperature and then the amount of radioactivity present was determined by liquid scintillation counting on a Microbeta Trilux (PerkinElmer #2450-0060).
The raw data (expressed as counts per minute) were analyzed using ActivityBase (IDBS Data Management Software). […] Equilibrium dissociation constant for inhibitor of ligand and receptor interaction (Ki) values were then calculated from the IC50 values using the Cheng-Prusoff equation: Ki=IC50/(1+([L]/Kd)), where [L] is the concentration of the radioligand used in the experiment and Kd is the affinity of the radioligand (determined in separate saturation experiments).
Molecule `COc1cc([C@@H](C)C(=O)N2CC[C@@]3(CCc4cc(-c5cnn(C)n5)c(C)nc4N3)C2)c(F)cn1` [Example 118, (2R)-2-(5-fluoro-2-methoxypyridin-4-yl)-1-[(2S)-7-methyl-6-(2-methyl-2H-1,2,3-triazol-4-yl)-3,4-dihydro-1H-spiro[1,8-naphthyridine-2,3′-pyrrolidin]-1′-yl]propan-1-one] has a Ki of 0.83 nM.
Work on `COc1cc([C@@H](C)C(=O)N2CC[C@@]3(CCc4cc(-c5ccccn5)c(C)nc4N3)C2)c(F)cn1` [Example 140, (2R)-2-(5-fluoro-2-methoxypyridin-4-yl)-1-[(2S)-7-methyl-6-(pyridin-2-yl)-3,4-dihydro-1H-spiro[1,8-naphthyridine-2,3′-pyrrolidin]-1′-yl]propan-1-one] yielded a Ki of 6.3 nM.
Work on `COc1cc([C@@H](C)C(=O)N2CC[C@@]3(CCc4cc(-c5nccs5)c(C)nc4N3)C2)c(F)cn1` [Example 167, (2R)-2-(5-fluoro-2-methoxypyridin-4-yl)-1-[(2S)-7-methyl-6-(1,3-thiazol-2-yl)-3,4-dihydro-1H-spiro[1,8-naphthyridine-2,3′-pyrrolidin]-1′-yl]propan-1-one] yielded a Ki of 5.4 nM.
Molecule `COc1cc([C@@H](C)C(=O)N2CC[C@@]3(CCc4cc(C5CCOCC5)c(C)nc4N3)C2)c(F)cn1` [Example 131, (2R)-2-(5-fluoro-2-methoxypyridin-4-yl)-1-[(2S)-7-methyl-6-(oxan-4-yl)-3,4-dihydro-1H-spiro[1,8-naphthyridine-2,3′-pyrrolidin]-1′-yl]propan-1-one] has a Ki of 5.8 nM.
`COc1cc([C@@H](C)C(=O)N2CC[C@@]3(CCc4cc(-c5nc(C)c(C)s5)c(C)nc4N3)C2)c(F)cn1` [Example 163, (2R)-1-[(2S)-6-(4,5-dimethyl-1,3-thiazol-2-yl)-7-methyl-3,4-dihydro-1H-spiro[1,8-naphthyridine-2,3′-pyrrolidin]-1′-yl]-2-(5-fluoro-2-methoxypyridin-4-yl)propan-1-one] gave a Ki of 2.8 nM.
In the case of `COc1cc([C@@H](C)C(=O)N2CC[C@@]3(CCc4cc(-c5cc(C)ccn5)c(C)nc4N3)C2)c(F)cn1` [Example 166, (2R)-2-(5-fluoro-2-methoxypyridin-4-yl)-1-[(2S)-7-methyl-6-(4-methylpyridin-2-yl)-3,4-dihydro-1H-spiro[1,8-naphthyridine-2,3′-pyrrolidin]-1′-yl]propan-1-one], the Ki is reported as 8.2 nM.
`Cc1nc2c(cc1-c1ncccn1)CC[C@@]1(CCN(C(=O)C(C)c3ccc(F)cc3F)C1)N2` (single isomer, unassigned) [Example 190] gave a Ki of 2.3 nM.
Work on `COc1cc([C@@H](C)C(=O)N2CC[C@@]3(CCc4cc(-c5cn(C(F)F)c(C)n5)c(C)nc4N3)C2)c(F)cn1` [Example 138, (2R)-1-{(2S)-6-[1-(difluoromethyl)-2-methyl-1H-imidazol-4-yl]-7-methyl-3,4-dihydro-1H-spiro[1,8-naphthyridine-2,3′-pyrrolidin]-1′-yl}-2-(5-fluoro-2-methoxypyridin-4-yl)propan-1-one] yielded a Ki of 0.9 nM.
Work on `COc1cc([C@@H](C)C(=O)N2CC[C@@]3(CCc4cc(-c5ncc(C(F)(F)F)cn5)c(C)nc4N3)C2)c(F)cn1` [Example 145, (2R)-2-(5-fluoro-2-methoxypyridin-4-yl)-1-{(2S)-7-methyl-6-[5-(trifluoromethyl)pyrimidin-2-yl]-3,4-dihydro-1H-spiro[1,8-naphthyridine-2,3′-pyrrolidin]-1′-yl}propan-1-one] yielded a Ki of 8.7 nM.
Molecule `COc1cc([C@@H](C)C(=O)N2CC[C@]3(CCc4cc(-c5nnn(C)n5)c(C)nc4N3)C2)c(F)cn1` [Example 116, (2R)-2-(5-fluoro-2-methoxypyridin-4-yl)-1-[(2R)-7-methyl-6-(2-methyl-2H-tetrazol-5-yl)-3,4-dihydro-1H-spiro[1,8-naphthyridine-2,3′-pyrrolidin]-1′-yl]propan-1-one] has a Ki of 7.1 nM.
Molecule `Cc1nc2c(cc1-c1nnn(C)n1)CC[C@@]1(CCN(C(=O)[C@H](C)c3ccc(OC(F)F)nc3)C1)N2` (single isomer, unassigned) [Example 107] has a Ki of 57 nM.
`COc1cc([C@@H](C)C(=O)N2CC[C@@]3(CCc4cc(-c5cncc(C6CC6)n5)c(C)nc4N3)C2)c(F)cn1` [Example 177, (2R)-1-[(2S)-6-(6-cyclopropylpyrazin-2-yl)-7-methyl-3,4-dihydro-1H-spiro[1,8-naphthyridine-2,3′-pyrrolidin]-1′-yl]-2-(5-fluoro-2-methoxypyridin-4-yl)propan-1-one] showed a Ki of 59 nM.
`COc1cc([C@@H](C)C(=O)N2CC[C@@]3(CCc4cc(-c5cccc(C(F)F)n5)c(C)nc4N3)C2)c(F)cn1` [Example 181, (2R)-1-{(2S)-6-[6-(difluoromethyl)pyridin-2-yl)-7-methyl-3,4-dihydro-1H-spiro[1,8-naphthyridine-2,3′-pyrrolidin]-1′-yl}-2-(5-fluoro-2-methoxypyridin-4-yl)propan-1-one] showed a Ki of 2.4 nM.
`COc1cc([C@@H](C)C(=O)N2CC[C@@]3(CCc4cc(-c5cnc(C)s5)c(C)nc4N3)C2)c(F)cn1` [Example 153, (2R)-2-(5-fluoro-2-methoxypyridin-4-yl)-1-[(2S)-7-methyl-6-(2-methyl-1,3-thiazol-5-yl)-3,4-dihydro-1H-spiro[1,8-naphthyridine-2,3′-pyrrolidin]-1′-yl]propan-1-one] showed a Ki of 3.3 nM.
`COc1cc([C@@H](C)C(=O)N2CC[C@@]3(CCc4cc(-c5cnc(C(F)(F)F)nc5)c(C)nc4N3)C2)c(F)cn1` [Example 170, (2R)-2-(5-fluoro-2-methoxypyridin-4-yl)-1-{(2S)-7-methyl-6-[2-(trifluoromethyl)pyrimidin-5-yl]-3,4-dihydro-1H-spiro[1,8-naphthyridine-2,3′-pyrrolidin]-1′-yl}propan-1-one] gave a Ki of 43 nM.
Work on `COc1cc([C@@H](C)C(=O)N2CC[C@@]3(CCc4cc(-c5nc(C(C)C)ns5)c(C)nc4N3)C2)c(F)cn1` [Example 162, (2R)-2-(5-fluoro-2-methoxypyridin-4-yl)-1-{(2S)-7-methyl-6-[3-(propan-2-yl)-1,2,4-thiadiazol-5-yl]-3,4-dihydro-1H-spiro[1,8-naphthyridine-2,3′-pyrrolidin]-1′-yl}propan-1-one] yielded a Ki of 8.2 nM.
`COc1cc([C@@H](C)C(=O)N2CC[C@@]3(CCc4cc(-c5ccc(-c6noc(C)n6)cc5)c(C)nc4N3)C2)c(F)cn1` [Example 175, (2R)-2-(5-fluoro-2-methoxypyridin-4-yl)-1-{(2S)-7-methyl-6-[4-(5-methyl-1,2,4-oxadiazol-3-yl)phenyl]-3,4-dihydro-1H-spiro[1,8-naphthyridine-2,3′-pyrrolidin]-1′-yl}propan-1-one] was tested, and the Ki was 45 nM.
With `COc1cc([C@@H](C)C(=O)N2CC[C@@]3(CCc4cc(-c5nnn(C)n5)c(C)nc4N3)C2)ccn1` (single isomer, unassigned) [Example 125] the Ki was 3.4 nM.
`COc1cc([C@@H](C)C(=O)N2CC[C@@]3(CCc4cc(-c5cnsc5)c(C)nc4N3)C2)c(F)cn1` [Example 150, (2R)-2-(5-fluoro-2-methoxypyridin-4-yl)-1-[(2S)-7-methyl-6-(1,2-thiazol-4-yl)-3,4-dihydro-1H-spiro[1,8-naphthyridine-2,3′-pyrrolidin]-1′-yl]propan-1-one] was tested, and the Ki was 3.9 nM.

Same assay, conditions: geometric mean, read-out: Ki (nM) geometric mean
`COc1ccc([C@@H](C)C(=O)N2CC[C@@]3(CCc4cc(-c5ncccn5)c(C)nc4N3)C2)cc1F` (single isomer, unassigned) [Example 42] was tested, and the Ki was 1.9 nM.
With `COc1cc([C@@H](C)C(=O)N2CC[C@@]3(CCc4ccc(C)nc4N3)C2)c(Cl)cn1` (single isomer, unassigned) [Example 100] the Ki was 1.1 nM.
With `COc1cc([C@@H](C)C(=O)N2CC[C@@]3(CCc4cc(-c5ncc(C(F)F)cn5)c(C)nc4N3)C2)c(F)cn1` [Example 21, (2R)-1-{(2S)-6-[5-(difluoromethyl)pyrimidin-2-yl]-7-methyl-3,4-dihydro-1H-spiro[1,8-naphthyridine-2,3′-pyrrolidin]-1′-yl}-2-(5-fluoro-2-methoxypyridin-4-yl)propan-1-one] the Ki was 2.2 nM.
`Cc1ccc2c(n1)N[C@@]1(CC2)CCN(C(=O)Cc2ccc(F)cc2)C1` (single isomer, unassigned) [Example 88, 2-(4-fluorophenyl)-1-(7-methyl-3,4-dihydro-1H-spiro[1,8-naphthyridine-2,3′-pyrrolidin]-1′-yl)ethan-1-one] was tested, and the Ki was > 2200 nM.
Work on `COc1cc([C@@H](C)C(=O)N2CC[C@@]3(CCc4cc(-c5nnn(C)n5)c(C)nc4N3)C2)c(F)cn1` [Example 13, (2R)-2-(5-fluoro-2-methoxypyridin-4-yl)-1-[(2S)-7-methyl-6-(2-methyl-2H-tetrazol-5-yl)-3,4-dihydro-1H-spiro[1,8-naphthyridine-2,3′-pyrrolidin]-1′-yl]propan-1-one] yielded a Ki of 0.6 nM.
